Test results taken from patent US11912695B2, “Benzodiazepine derivatives as RSV inhibitors” (ENANTA PHARMACEUTICALS, INC., priority 2019, dated 2024).

What was measured:
[1] = system: Human RSV-A (“Long” strain); experiment: RSV-A assay (CPE, ATPlite) in Hep-2 cells; type: cell-based; details: human respiratory syncytial virus, 120 h, MOI 0.1, 5-day incubation, ATPlite readout
Excerpt: Hep-2 cells, (originally derived from tumors grown in irradiated-cortisonised weanling rats that had been injected with epidermoid carcinoma tissue from a person's larynx, but later found to be indistinguishable from HeLa cells by PCR DNA analysis), were used for the culturing of genotype A, “Long” strain RSV. Flasks were inoculated with RSV and viral stocks were collected once cytopathic effect (CPE) was greater than 90%. Viral stocks in 25% sucrose media were snap frozen using liquid nitrogen to increase viral stability. Viral stock titers were quantified by tissue culture infectious dose 50% (TCID50) using 8,000 cells per well and 3-fold viral dilutions across a 96-well plate, cultured for 4 days. Viral stock titers were also quantified by a plaque forming unit assay, as described elsewhere.
Following extensive parameter testing, the final assay is run as follows: Hep-2 cells are seeded into the inner 60 wells of a 96-well plate at 8,000 cells per well in a volume of 50 μL using Growth Media (DMEM without phenol red, 1% L-Glut, 1% Penn/Strep, 1% nonessential amino acids, 10% heat-inactivated FBS). 2-fold serial dilutions of control and test compounds are added to the wells in duplicate in a total volume of 25 μL. Viral stock is then added to the wells at a multiplicity of infection (MOI) of 0.1 in a volume of 25 μL, bringing the total volume of each well to 100 μL. The MOI is calculated using the PFU/mL, or TCID50 if unavailable. Each 96-well plate has a control column of 6 wells with cells and virus but no compound (negative control, max CPE), a column with cells but no compound or virus (positive control, minimum CPE), and a column with no cells or virus or compound (background plate/reagent control). The control wells with cells but no virus are given an additional 25 μL of growth media containing an equal quantity of sucrose as those wells receiving the viral stock in order to keep consistent in media and volume conditions. The outer wells of the plate are filled with 125 μL of moat media (DMEM, 1% Penn/Strep) to act as a thermal and evaporative moat around the test wells. Following a 5-day incubation period, the plates are read using ATPlite (50 μL added per well), which quantifies the amount of ATP (a measure of cell health) present in each well. Assay plates are read using the Envision luminometer. In parallel, cytotoxicity is examined on an additional 96-well plate treated in an identical manner, but substituting the 25 μL of viral stock for 25 μL of growth media. […] EC50 ranges are as follows: A<0.4 μM; B 0.4-0.8 μM; C>0.8 μM.

[2] = system: Human RSV-B (genotype B, strain 9320); experiment: RSV-B assay (qPCR or ATPlite) in A549 cells; type: cell-based; details: human respiratory syncytial virus, 144 h, strain 9320, MOI 0.5, 6 days post infection, qPCR or ATPlite readout
Excerpt: Hep-2 cells, (originally derived from tumors grown in irradiated-cortisonised weanling rats that had been injected with epidermoid carcinoma tissue from a person's larynx, but later found to be indistinguishable from HeLa cells by PCR DNA analysis), were used for the culturing of genotype B, strain 9320. Flasks were inoculated with RSV-B and viral stocks were collected once cytopathic effect (CPE) was greater than 90%. Viral stocks in 25% sucrose media were snap frozen using liquid nitrogen to increase viral stability. Viral stock titers were quantified by tissue culture infectious dose 50% (TCID50) using 8,000 cells per well and 5-fold viral dilutions across a 96-well plate, cultured for 4 days. Viral stock titers were also quantified by a plaque forming unit assay, as described elsewhere.
The assay is run as follows: A549 cells (originally derived through explant culture from a person's carcinomatous lung tissue) are seeded into the inner 60 wells of a 96-well plate at 3,000 cells per well in a volume of 50 μL using A549 growth media (F-12K Media, 1% Penn/Strep, 1% nonessential amino acids, 10% heat-inactivated FBS). 2-fold serial dilutions of control and test compounds are added to the wells in duplicate in a total volume of 25 μL. Viral stock is then added to the wells at a multiplicity of infection (MOI) of 0.5 in a volume of 25 μL, bringing the total volume of each well to 100 μL. The MOI is calculated using the PFU/mL, or TCID50 if unavailable. Each 96-well plate has a control column of 6 wells with cells and virus but no compound (negative control, max CPE), a column with cells but no compound or virus (positive control, minimum CPE), and a column with no cells or virus or compound (background plate/reagent control). The control wells with cells but no virus are given an additional 25 μL of growth media containing an equal quantity of sucrose as those wells receiving the viral stock in order to keep consistent in media and volume conditions. The outer wells of the plate are filled with 125 μL of moat media (DMEM, 1% Penn/Strep) to act as a thermal and evaporative moat around the test wells. 6 days post infection, the plates are read using qPCR or ATP lite (50 μL added per well), which quantifies the amount of ATP (a measure of cell health) present in each well. Assay plates treated with APTlite are read using the Envision luminometer. […] EC50 ranges are as follows: A<0.4 μM; B 0.4-0.8 μM; C>0.8 μM.

**Q.** For `O=C1Nc2ccccc2C(c2ccccc2)=NC1Nc1nnc(-c2ncc(C(F)(F)F)cc2-c2cnc(CF)nc2)o1` (centres unmarked) [Example 6], which EC50 [1] is on record?
**A.** < 400 nM

**Q.** For `O=C1Nc2ccccc2C(c2ccccc2)=NC1Nc1nnc(-c2ncc(C(F)(F)F)cc2-c2cnc(C3CCC3)nc2)o1` (centres unmarked) [Example 13], which EC50 [1] is on record?
**A.** 400 to 800 nM

**Q.** And the EC50 [2]?
**A.** < 400 nM

**Q.** With `O=C1Nc2c(F)cccc2C(c2ccccc2)=N[C@@H]1Nc1nnc(-c2nc(C3(C(F)(F)F)CC3)sc2-c2cnc(C3CC3)nc2)o1` [Example 75] as the compound, how does the EC50 [1] read?
**A.** < 400 nM

**Q.** And the EC50 [2]?
**A.** < 400 nM

**Q.** How did the EC50 [1] turn out when `Cc1ncc(-c2cc(C(F)(F)F)cnc2-c2nnc(NC3N=C(c4ccccc4)c4ccccc4NC3=O)o2)cn1` (centres unmarked) [Example 1] was run?
**A.** < 400 nM

**Q.** And the EC50 [2]?
**A.** < 400 nM

**Q.** For `O=C1Nc2ccccc2C(c2ccccc2)=NC1Nc1nnc(-c2cccnc2-c2cnc(C3CC3)nc2)o1` (centres unmarked) [Example 23], which EC50 [1] is on record?
**A.** > 800 nM

**Q.** And the EC50 [2]?
**A.** < 400 nM

**Q.** How did the EC50 [1] turn out when `CC(C)(F)c1ncc(-c2cc(C(F)(F)F)cnc2-c2nnc(NC3N=C(c4ccccc4)c4ccccc4NC3=O)o2)cn1` (centres unmarked) [Example 12] was run?
**A.** > 800 nM

**Q.** What about the EC50 [2] of the same compound?
**A.** > 800 nM

**Q.** What does the source list for `CCc1ncc(-c2sc(C3(C(F)(F)F)CC3)nc2-c2nnc(N[C@H]3N=C(c4ccccc4)c4cccc(F)c4NC3=O)o2)cn1` [Example 63]?
**A.** EC50 [1]: < 400 nM; EC50 [2]: < 400 nM

**Q.** For `COc1ncc(-c2cc(C(F)(F)F)cnc2-c2nnc(NC3N=C(c4ccccc4)c4ccccc4NC3=O)o2)cn1` (centres unmarked) [Example 3], which EC50 [1] is on record?
**A.** 400 to 800 nM

**Q.** What about the EC50 [2] of the same compound?
**A.** 400 to 800 nM

**Q.** What does the source list for `O=C1Nc2c(F)cccc2C(c2ccccc2)=N[C@@H]1Nc1nnc(-c2nc(C3CC3)sc2-c2cnc(C3CC3)nc2)o1` [Example 48]?
**A.** EC50 [1]: < 400 nM; EC50 [2]: < 400 nM

**Q.** `Cc1ncc(-c2sc(C)nc2-c2nnc(N[C@@H]3N=C(c4ccccc4)c4cccc(F)c4NC3=O)o2)cn1` [Example 38] was tested. Which EC50 [1] did it give?
**A.** < 400 nM

**Q.** What about the EC50 [2] of the same compound?
**A.** < 400 nM

**Q.** Which EC50 [1] does the source give for `CCc1ncc(-c2sc(C(F)(F)F)nc2-c2nnc(N[C@@H]3N=C(c4ccccc4)c4cccc(F)c4NC3=O)o2)cn1` [Example 42] here?
**A.** < 400 nM

**Q.** And the EC50 [2]?
**A.** < 400 nM

**Q.** Which EC50 [1] does the source give for `CCc1ncc(-c2sc(C)nc2-c2nnc(N[C@@H]3N=C(c4ccccc4)c4cccc(F)c4NC3=O)o2)cn1` [Example 37] here?
**A.** < 400 nM

**Q.** And the EC50 [2]?
**A.** < 400 nM

**Q.** `O=C1Nc2ccccc2C(c2ccccc2)=NC1Nc1nnc(-c2nc(C(F)(F)F)sc2-c2cnc(C3CC3)nc2)o1` (centres unmarked) [Example 34] was tested. Which EC50 [1] did it give?
**A.** < 400 nM

**Q.** And the EC50 [2]?
**A.** < 400 nM

**Q.** With `O=C1Nc2ccccc2C(c2ccccc2)=N[C@@H]1Nc1nnc(-c2ccc(C(F)(F)F)nc2-c2cnc(C3CC3)nc2)o1` [Example 22] as the compound, how does the EC50 [1] read?
**A.** 400 to 800 nM

**Q.** And the EC50 [2]?
**A.** < 400 nM

**Q.** How did the EC50 [1] turn out when `CCc1nc(-c2nnc(N[C@@H]3N=C(c4ccccc4)c4cccc(F)c4NC3=O)o2)c(-c2cnc(C)nc2)s1` [Example 51] was run?
**A.** 400 to 800 nM

**Q.** What about the EC50 [2] of the same compound?
**A.** < 400 nM

**Q.** Which results are given for `Cc1ncc(-c2sc(C3(C)CC3)nc2-c2nnc(N[C@@H]3N=C(c4ccccc4)c4cccc(F)c4NC3=O)o2)cn1` [Example 66]?
**A.** EC50 [1]: 400 to 800 nM; EC50 [2]: < 400 nM

**Q.** What does the source list for `CCc1nc(-c2nnc(N[C@@H]3N=C(c4ccccc4)c4cccc(F)c4NC3=O)o2)c(-c2cnc(C3CC3)nc2)s1` [Example 53]?
**A.** EC50 [1]: 400 to 800 nM; EC50 [2]: < 400 nM

**Q.** Which results are given for `O=C1Nc2ccccc2C(c2ccccc2)=NC1Nc1nnc(-c2ncc(C(F)(F)F)cc2-c2cncnc2)o1` (centres unmarked) [Example 2]?
**A.** EC50 [1]: > 800 nM; EC50 [2]: > 800 nM

**Q.** How did the EC50 [1] turn out when `CCc1ncc(-c2sc(C3(C(F)(F)F)CC3)nc2-c2nnc(N[C@H]3N=C(c4ccccc4)c4ccccc4NC3=O)o2)cn1` [Example 71] was run?
**A.** < 400 nM

**Q.** What about the EC50 [2] of the same compound?
**A.** < 400 nM

**Q.** With `CCc1ncc(-c2sc(C3CCC3)nc2-c2nnc(N[C@@H]3N=C(c4ccccc4)c4cccc(F)c4NC3=O)o2)cn1` [Example 59] as the compound, how does the EC50 [1] read?
**A.** < 400 nM

**Q.** And the EC50 [2]?
**A.** < 400 nM

**Q.** With `Cc1ncc(-c2sc(C3CCC3)nc2-c2nnc(N[C@@H]3N=C(c4ccccc4)c4cccc(F)c4NC3=O)o2)cn1` [Example 60] as the compound, how does the EC50 [1] read?
**A.** < 400 nM

**Q.** And the EC50 [2]?
**A.** < 400 nM

**Q.** What does the source list for `Cc1ncc(-c2sc(C3CC3)nc2-c2nnc(N[C@H]3N=C(c4ccccc4)c4cccc(F)c4NC3=O)o2)cn1` [Example 56]?
**A.** EC50 [1]: < 400 nM; EC50 [2]: < 400 nM

**Q.** Which EC50 [1] does the source give for `N#Cc1ncc(-c2cc(C(F)(F)F)cnc2-c2nnc(NC3N=C(c4ccccc4)c4ccccc4NC3=O)o2)cn1` (centres unmarked) [Example 5] here?
**A.** > 800 nM
